Active and inactive are the calls of the source. The calls are words filed in the database; no cut-off is given here.
Key:
[1] = test system: HL-60; experiment: Induction of apoptosis in human HL60 cells assessed as decrease in Bid protein level at 500 nM after 24 hrs by Western blot analysis; type: functional, cell-based
[2] = test system: HL-60; experiment: Induction of apoptosis in human HL60 cells assessed as early apoptotic cells at 50 nM after 24 hrs by FITC-conjugated annexin V and propidium iodide staining-based flow cytometry; type: functional
[3] = test system: HL-60; experiment: Induction of apoptosis in human HL60 cells assessed as early apoptotic cells at 500 to 1000 nM after 24 hrs by FITC-conjugated annexin V and propidium iodide staining-based flow cytometry; type: functional
[4] = test system: HL-60; experiment: Induction of apoptosis in human HL60 cells assessed as decrease in PARP level at 250 nM after 24 hrs by Western blot analysis; type: functional, cell-based
[5] = test system: THP-1; experiment: Cytotoxicity against human THP1 cells after 22 hrs by MTS assay; type: functional, cell-based; settings: THP-1, 22 h
[6] = test system: MDA-MB-231; experiment: Cytotoxicity against human MDA-MB-231 cells after 22 hrs by MTS assay; type: functional, cell-based; settings: MDA-MB-231, 22 h
[7] = test system: HL-60; experiment: Induction of apoptosis in human HL60 cells assessed as decrease in procaspase-8 level at 500 nM after 24 hrs by Western blot analysis; type: functional, cell-based
[8] = test system: HL-60; experiment: Induction of apoptosis in human HL60 cells assessed as decrease in PARP level at 500 nM after 24 hrs by Western blot analysis; type: functional, cell-based
[9] = test system: HL-60; experiment: Induction of apoptosis in human HL60 cells assessed as early apoptotic cells at 250 nM after 24 hrs by FITC-conjugated annexin V and propidium iodide staining-based flow cytometry; type: functional
[10] = Inhibition of EGF-stimulated viability of mouse JB6 Cl41 cells after 22 hrs by MTS assay; type: functional, cell-based; settings: JB6 Cl41, 22 h
[11] = test system: SK-MEL-28; experiment: Cytotoxicity against human SK-MEL-28 cells after 22 hrs by MTS assay; type: functional, cell-based; settings: SK-MEL-28, 22 h
[12] = test system: HL-60; experiment: Induction of apoptosis in human HL60 cells assessed as total apoptotic cells at 50 to 100 nM after 24 hrs by FITC-conjugated annexin V and propidium iodide staining-based flow cytometry; type: functional
[13] = test system: DLD-1; experiment: Cytotoxicity against human DLD1 cells after 22 hrs by MTS assay; type: functional, cell-based; settings: DLD-1, 22 h
[14] = test system: HeLa; experiment: Cytotoxicity against human HeLa cells after 22 hrs by MTS assay; type: functional, cell-based
[15] = test system: HL-60; experiment: Induction of apoptosis in human HL60 cells assessed as decrease in procaspase-3 level at 500 nM after 24 hrs by Western blot analysis; type: functional, cell-based
[16] = test system: HL-60; experiment: Induction of apoptosis in human HL60 cells assessed as decrease in procaspase-9 level at 500 nM after 24 hrs by Western blot analysis; type: functional, cell-based
[17] = test system: HL-60; experiment: Cytotoxicity against human HL60 cells after 22 hrs by MTS assay; type: functional, cell-based; settings: HL-60, 22 h
[18] = Cytotoxicity against human SNUC4 cells after 22 hrs by MTS assay; type: functional, cell-based; settings: SNU-C4, 22 h
[19] = test system: HL-60; experiment: Induction of apoptosis in human HL60 cells assessed as total apoptotic cells at 1000 nM after 24 hrs by FITC-conjugated annexin V and propidium iodide staining-based flow cytometry; type: functional
[20] = test system: HL-60; experiment: Induction of apoptosis in human HL60 cells assessed as change in mitochondrial permeability at 250 nM after 24 hrs by DiOC6 staining-based flow cytometry (RVB = 90.3%); type: functional

SMILES: O=C1c2ccccc2-[n+]2ccc3c([nH]c4cc(Br)ccc43)c21.[Cl-]
- inhibition [1]: Active
- Activity [2]: 5%
- Activity [3]: 20%
- inhibition [4]: Active
- IC50 [5]: 161 nM
- IC50 [6]: 173 nM
- inhibition [7]: Active
- inhibition [8]: Active
- Activity [9]: 40%
- IC50 [10]: 144 nM
- IC50 [11]: > 1000 nM
- Activity [12]: 20%
- IC50 [13]: 118 nM
- IC50 [14]: 86 nM
- inhibition [15]: Active
- inhibition [16]: Active
- IC50 [17]: 142 nM
- IC50 [18]: 125 nM
- Activity [19]: 90%
- Activity [20]: 60.1%

Reference: ChEMBL document CHEMBL1165930, “The anticancer activity of 3- and 10-bromofascaplysins is mediated by caspase-8, -9, -3-dependent apoptosis” (Bioorg Med Chem, 2010)
